# Reference: US11919932B2, “HMGN partial peptide and cancer therapy using the same” (The University of Tokyo, priority 2018, dated 2024)
# What was measured:
# [1] = test system: Colon26 large intestine cancer cells; assay: Colon26 tumor-bearing mice, HMGN peptide in combination with anti-PD-L1 antibody, tumor volume; type: in vivo, mouse; details: for anti-tumor effect compared with Pep1 (FIG. 11) / anti-tumor effect, tumor volume 24 days after tumor implantation (FIG. 11): same molar dose as 300 ng of Pep1; for anti-tumor effect, tumor volume 24 days after tumor implantation (FIG. 11): vs anti-PD-L1 antibody single administration group; for tumor growth (time-dependent change in tumor volume, FIG. 7): Pep1 60 and 300 ng/mouse, other peptides three equimolar doses, common ratio 5 (Pep1core 8 to 200 ng/mouse); for growth of Colon26 solid tumor, tumor volume 26 days after tumor cell implantation (FIG. 5, FIG. 6): peptide equimolar to Pep1 300 ng/mouse (two doses, common ratio 5, for Pep1ΔN2 and Pep1 mutant), vs anti-PD-L1 alone
# Description: (§1) Seven-week-old male BALB/c mice were used in groups of 8 mice, and Colon26 large intestine cancer cells were subcutaneously transplanted into the right flank at 2×10^5 cells/mouse.
# (§2) An anti-mouse PD-L1 antibody (clone 10F.9G2) and an anti-mouse CD4 depleting antibody (clone GK1.5) were purchased from BioXcell.
# (§3) The HMGN peptide was intraperitoneally administered at a dose described below four times in total at 9, 14, 17 and 20 days after tumor cell implantation. The anti-mouse PD-L1 antibody was intraperitoneally administered at 200 μg/mouse four times in total at 4, 8, 14 and 18 days after tumor cell implantation. The anti-mouse CD4 antibody was intraperitoneally administered at a dose of 200 μg/mouse twice in total at 5 and 9 days after tumor cell implantation. The long diameter and short diameter of the solid tumor were measured every 3 to 4 days, and tumor volume was calculated by the following calculation formula. Tumor volume (mm^3)=(Long diameter; mm)×(Short diameter; mm)^2×0.5236
# [2] = test system: Colon26 large intestine cancer cells; assay: Colon26 tumor-bearing mice, HMGN peptide in combination with anti-CD4 antibody, tumor volume; type: in vivo; details: Pep1 800 ng/mouse + anti-CD4 antibody 200 μg/mouse
# Description: as §1, §2, §3
# The partial peptide of human HMGN1, Pep1 (800 ng/mouse), was administered to Colon26 tumor-bearing mice in combination with an anti-CD4 antibody (200 μg/mouse), and the anti-tumor effect was investigated.
# [3] = test system: Colon26 large intestine cancer cells; assay: Colon26 tumor-bearing mice, HMGN peptide single administration, tumor volume; type: in vivo, mouse; details: Pep1 alone; vs control group
# Protocol: as §1, §3
# A partial fragment (human HMGN1 NBD peptide 1; Pep1, SEQ ID NO: 3) of human HMGN1 (SEQ ID NO: 17) corresponding to mPep1 was prepared and administered to Colon26 tumor-bearing mice alone or in combination with an anti-PD-L1 antibody (200 μg/mouse), and the anti-tumor effect was investigated.
# [4] = + anti-PD-L1 antibody 200 μg/mouse
substance,measurement,setting,value
"HMGN5 NBD-peptide (GQGDMRQEPKRRSARLSAMLVPVTPEVKPKRTSSSRKMKTKSD; Human HMGN5 NBD-peptide (N5Pep)) [PepN5, partial region containing NBD of human HMGN5]",anti-tumor effect compared with Pep1 (FIG. 11),[1]; + anti-PD-L1 antibody,at the same level as Pep1
same,"anti-tumor effect, tumor volume 24 days after tumor implantation (FIG. 11)",[1]; + anti-PD-L1 antibody,significant anti-tumor effects
Human HMGN1 NBD-peptide 1 (SSAEGAAKEEPKRRSARLSAKPPAKVEAKPKKAAAKD; Human HMGN1 NBD-peptide 1 (Pep1)),"Colon26 solid tumor growth (FIG. 12, FIG. 13; tumor volume 24 days after implantation)",[2],synergistically suppressed Colon26 solid tumor growth
same,anti-tumor effect (FIG. 3),"[1]; 3 ng/mouse and 30 ng/mouse, + anti-PD-L1 antibody",effective
same,"tumor growth (time-dependent change in tumor volume, FIG. 7)",[1]; [4],synergistically suppressed tumor growth
same,"tumor growth (FIG. 3, FIG. 4)",[1]; Pep1 + anti-PD-L1 antibody 200 μg/mouse,synergistically suppressed tumor growth
same,potency difference in the anti-tumor action between PepO and Pep1,[1]; both + anti-PD-L1 antibody,≥ 300 times
same,"growth of Colon26 solid tumor, tumor volume 26 days after tumor cell implantation (FIG. 5, FIG. 6)",[1]; [4],significantly suppressed
same,"growth of Colon26 solid tumor, tumor volume 23 days after tumor implantation (FIG. 3)",[3],significantly suppressed growth of Colon26 solid tumor in a dose-dependent manner
Human HMGN1 NBD-peptide 1 core (EPKRRSARLSAKPPAKVEAKPKK; Human HMGN1 NBD-peptide1 core (Pep1core)) [10th to 32nd residues of Pep1],"tumor growth (time-dependent change in tumor volume, FIG. 7)",[1]; [4],suppressed in a dose-dependent manner
same,"tumor volume 27 days after implantation, difference from anti-PD-L1 antibody single administration group (FIG. 8)","[1]; doses of 40 and 200 ng/mouse, + anti-PD-L1 antibody",significant difference was observed
"Human HMGN1 NBD-peptide 1 mutant (SAEGAAKEEPKDDSADLSAKPPAKVEAKPKKAAAKD; Human HMGN1 NBD-peptide 1 mutant (Pep1 mutant)) [R→D mutant of Pep1, N-terminal 1 residue removed]","growth of Colon26 solid tumor, tumor volume 26 days after tumor cell implantation (FIG. 5, FIG. 6)",[1]; [4],same anti-tumor action as Pep1
"Human HMGN1 NBD-peptide 1 Δ C1 (SSAEGAAKEEPKRRSARLSAKPPAKVEAKPKK; Human HMGN1 NBD-peptide 1 delta-C1 (Pep1 delta-C1)) [Pep1ΔC1, C-terminal 5 residues of Pep1 removed]",complete regression of solid tumors,"[1]; dose of 53 ng, + anti-PD-L1 antibody",1 case
same,complete regression of solid tumors,"[1]; doses of 11 and 265 ng/mouse, + anti-PD-L1 antibody",3 cases out of 8 cases
same,"growth of Colon26 solid tumor, tumor volume 26 days after tumor cell implantation (FIG. 5, FIG. 6)",[1]; [4],significantly suppressed
"Human HMGN1 NBD-peptide 1 Δ C2 (SSAEGAAKEEPKRRSARLSAKPPAKVEA; Human HMGN1 NBD-peptide 1 delta-C2 (Pep1 delta-C2)) [Pep1ΔC2, C-terminal 9 residues of Pep1 removed]","growth of Colon26 solid tumor, tumor volume 26 days after tumor cell implantation (FIG. 5, FIG. 6)",[1]; [4],ineffective
"Human HMGN1 NBD-peptide 1 Δ C (SSAEGAAKEEPKRRSARLSAKPPA; Human HMGN1 NBD-peptide 1 delta-C (Pep1 delta-C)) [Pep1 ΔC, C-terminal 13 residues of Pep1 removed]","growth of Colon26 solid tumor, tumor volume 26 days after tumor cell implantation (FIG. 5, FIG. 6)",[1]; [4],anti-tumor effect of the peptide was lost
"Human HMGN1 NBD-peptide 1 Δ N1 (AAKEEPKRRSARLSAKPPAKVEAKPKKAAAKD; Human HMGN1 NBD-peptide 1 delta-N1 (Pep1 delta-N1)) [Pep1ΔN1, N-terminal 5 residues of Pep1 removed]","Colon26 solid tumor growth (FIG. 5, FIG. 6)","[1]; doses of 53 and 267 ng/mouse, + anti-PD-L1 antibody 200 μg/mouse",significantly suppressed
"Human HMGN1 NBD-peptide 1 Δ N2 (EPKRRSARLSAKPPAKVEAKPKKAAAKD; Human HMGN1 NBD-peptide 1 delta-N2 (Pep1 delta-N2)) [Pep1ΔN2, N-terminal 9 residues of Pep1 removed]","tumor growth (time-dependent change in tumor volume, FIG. 7)",[1]; [4],synergistic effect
same,solid tumors completely regressed,"[1]; dose of 9.4 ng/mouse, + anti-PD-L1 antibody",4 cases out of 8 cases
same,"growth of Colon26 solid tumor, tumor volume 26 days after tumor cell implantation (FIG. 5, FIG. 6)",[1]; [4],similarly suppressed solid tumors
"Human HMGN1 NBD-peptide 1 Δ N3 (SARLSAKPPAKVEAKPKKAAAKD; Human HMGN1 NBD-peptide 1 delta-N3 (Pep1 delta-N3)) [Pep1ΔN3, N-terminal 14 residues of Pep1 removed]","growth of Colon26 solid tumor, tumor volume 26 days after tumor cell implantation (FIG. 5, FIG. 6)",[1]; [4],ineffective
"Human HMGN1 peptide O (KEEPKRRSARLSAKPPAKVEAKPKKAAAKDKSSDKK; Human HMGN1 peptide O (PepO)) [known HMGN peptide of U.S. Pat. No. 8,227,417, reference compound]",complete regression of solid tumors,"[1]; 954 ng/mouse, + anti-PD-L1 antibody 200 μg/mouse",3 mice
same,"anti-tumor effect, tumor volume 24 days after tumor implantation (FIG. 9, FIG. 10)","[1]; dose of 318 ng/mouse (equimolar to Pep1 300 ng/mouse), + anti-PD-L1 antibody 200 μg/mouse",no anti-tumor effect
same,"tumor growth, tumor volume 24 days after tumor implantation (FIG. 9, FIG. 10)","[1]; triple dose of 954 ng/mouse, + anti-PD-L1 antibody 200 μg/mouse",significantly suppressed tumor growth
Human HMGN2 NBD-peptide [PepN2],anti-tumor effect compared with Pep1 (FIG. 11),[1]; + anti-PD-L1 antibody,at the same level as Pep1
same,"anti-tumor effect, tumor volume 24 days after tumor implantation (FIG. 11)",[1]; + anti-PD-L1 antibody,significant anti-tumor effects
Human HMGN3 NBD-peptide [PepN3],"anti-tumor effect, tumor volume 24 days after tumor implantation (FIG. 11)",[1]; + anti-PD-L1 antibody,no anti-tumor effect
Human HMGN4 NBD-peptide [PepN4],anti-tumor effect compared with Pep1 (FIG. 11),[1]; + anti-PD-L1 antibody,at the same level as Pep1
same,"anti-tumor effect, tumor volume 24 days after tumor implantation (FIG. 11)",[1]; + anti-PD-L1 antibody,significant anti-tumor effects
mouse HMGN1 NBD-peptide 2 (VQIKGKRGAKGKQADVADQQTTELPAENGETENQSPASEE; mouse HMGN1 NBD-peptide 2 (mPep2)) [region at the C-terminal side of mouse HMGN1 NBD],tumor volume 24 days after Colon26 tumor cell implantation (FIG. 2),"[1]; doses of 30, 300 ng/mouse (mPep2 same molar number), + anti-PD-L1 antibody, vs control group",ineffective
same,"tumor growth (time-dependent change in tumor volume, FIG. 1)","[1]; mPep1 30 or 300 ng/mouse, mPep2 33 or 330 ng/mouse, i.p. four times, + anti-PD-L1 antibody 200 μg/mouse",no combined effect
